Experimental data published in PMC5933747 (PLoS ONE, 2018).
Like-named read-outs stand apart in the source and are kept apart here.

Tests used:
Format in all cases: cell-based
human NaV1.4 = human NaV1.4 (Homo sapiens, UniProt P35499); assay: IonWorks Quattro (IWQ) electrophysiology, human NaV1.4
human NaV1.5 = human NaV1.5 (Homo sapiens, UniProt Q14524); assay: IonWorks Quattro (IWQ) electrophysiology, human NaV1.5
human NaV1.7 = human NaV1.7 (Homo sapiens, UniProt Q15858); assay: IonWorks Quattro (IWQ) electrophysiology, human NaV1.7
[1] = read-out: Glu mutant IWQ IC50 NaV1.4
[2] = read-out: Glu mutant IWQ IC50 NaV1.5
[3] = read-out: Glu mutant IWQ IC50 NaV1.7

Chain of human NaV1.5 (Q14524 whole entry): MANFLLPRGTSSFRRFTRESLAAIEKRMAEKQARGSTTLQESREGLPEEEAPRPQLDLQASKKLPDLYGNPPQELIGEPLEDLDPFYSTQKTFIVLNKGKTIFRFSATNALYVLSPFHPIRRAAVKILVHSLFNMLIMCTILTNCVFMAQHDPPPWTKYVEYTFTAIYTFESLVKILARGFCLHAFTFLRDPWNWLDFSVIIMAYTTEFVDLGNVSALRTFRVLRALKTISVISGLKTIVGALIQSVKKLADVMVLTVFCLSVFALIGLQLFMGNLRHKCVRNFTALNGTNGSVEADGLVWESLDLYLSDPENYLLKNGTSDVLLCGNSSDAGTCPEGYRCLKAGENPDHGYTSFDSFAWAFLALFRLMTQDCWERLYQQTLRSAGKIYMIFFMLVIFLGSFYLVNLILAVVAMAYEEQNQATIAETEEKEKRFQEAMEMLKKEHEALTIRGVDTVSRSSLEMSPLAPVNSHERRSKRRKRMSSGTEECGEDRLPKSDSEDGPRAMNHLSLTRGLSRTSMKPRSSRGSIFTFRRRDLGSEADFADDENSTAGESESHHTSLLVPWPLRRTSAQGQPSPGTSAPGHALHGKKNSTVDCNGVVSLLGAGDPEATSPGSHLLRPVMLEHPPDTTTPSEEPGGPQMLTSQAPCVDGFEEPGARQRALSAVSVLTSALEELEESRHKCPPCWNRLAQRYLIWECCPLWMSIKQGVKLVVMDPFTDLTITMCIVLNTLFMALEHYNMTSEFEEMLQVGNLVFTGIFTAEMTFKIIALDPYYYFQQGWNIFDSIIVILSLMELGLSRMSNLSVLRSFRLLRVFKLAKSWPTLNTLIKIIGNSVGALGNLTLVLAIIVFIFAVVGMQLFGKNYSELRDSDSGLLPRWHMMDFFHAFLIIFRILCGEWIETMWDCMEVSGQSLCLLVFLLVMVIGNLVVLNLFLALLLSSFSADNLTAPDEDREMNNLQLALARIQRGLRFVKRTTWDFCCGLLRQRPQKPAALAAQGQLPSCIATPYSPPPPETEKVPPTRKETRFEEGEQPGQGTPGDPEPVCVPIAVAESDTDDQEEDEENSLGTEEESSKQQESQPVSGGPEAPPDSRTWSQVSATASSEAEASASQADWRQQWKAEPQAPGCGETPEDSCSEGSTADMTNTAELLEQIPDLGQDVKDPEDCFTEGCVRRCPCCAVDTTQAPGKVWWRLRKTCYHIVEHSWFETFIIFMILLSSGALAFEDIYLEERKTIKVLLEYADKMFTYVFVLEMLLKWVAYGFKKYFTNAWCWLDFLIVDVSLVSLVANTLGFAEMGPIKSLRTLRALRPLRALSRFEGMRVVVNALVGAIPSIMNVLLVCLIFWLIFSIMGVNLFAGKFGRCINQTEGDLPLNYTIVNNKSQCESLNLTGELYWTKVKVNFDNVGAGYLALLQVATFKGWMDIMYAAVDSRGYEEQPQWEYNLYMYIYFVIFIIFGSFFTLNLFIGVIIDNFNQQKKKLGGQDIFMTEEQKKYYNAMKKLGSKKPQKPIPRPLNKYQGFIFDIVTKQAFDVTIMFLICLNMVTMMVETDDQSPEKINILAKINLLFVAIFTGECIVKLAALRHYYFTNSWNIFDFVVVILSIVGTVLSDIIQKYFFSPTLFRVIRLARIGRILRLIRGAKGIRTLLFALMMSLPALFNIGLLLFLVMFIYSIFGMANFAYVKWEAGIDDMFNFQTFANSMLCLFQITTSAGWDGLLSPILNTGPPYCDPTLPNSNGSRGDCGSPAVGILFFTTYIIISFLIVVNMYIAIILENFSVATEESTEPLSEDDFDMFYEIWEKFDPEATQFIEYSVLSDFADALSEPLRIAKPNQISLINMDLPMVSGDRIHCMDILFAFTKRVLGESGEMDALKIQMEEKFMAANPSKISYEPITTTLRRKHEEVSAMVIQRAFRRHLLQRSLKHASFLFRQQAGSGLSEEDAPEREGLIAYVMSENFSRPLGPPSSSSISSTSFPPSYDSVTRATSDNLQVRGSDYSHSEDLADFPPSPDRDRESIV
Chain of human NaV1.7 (Q15858 whole entry): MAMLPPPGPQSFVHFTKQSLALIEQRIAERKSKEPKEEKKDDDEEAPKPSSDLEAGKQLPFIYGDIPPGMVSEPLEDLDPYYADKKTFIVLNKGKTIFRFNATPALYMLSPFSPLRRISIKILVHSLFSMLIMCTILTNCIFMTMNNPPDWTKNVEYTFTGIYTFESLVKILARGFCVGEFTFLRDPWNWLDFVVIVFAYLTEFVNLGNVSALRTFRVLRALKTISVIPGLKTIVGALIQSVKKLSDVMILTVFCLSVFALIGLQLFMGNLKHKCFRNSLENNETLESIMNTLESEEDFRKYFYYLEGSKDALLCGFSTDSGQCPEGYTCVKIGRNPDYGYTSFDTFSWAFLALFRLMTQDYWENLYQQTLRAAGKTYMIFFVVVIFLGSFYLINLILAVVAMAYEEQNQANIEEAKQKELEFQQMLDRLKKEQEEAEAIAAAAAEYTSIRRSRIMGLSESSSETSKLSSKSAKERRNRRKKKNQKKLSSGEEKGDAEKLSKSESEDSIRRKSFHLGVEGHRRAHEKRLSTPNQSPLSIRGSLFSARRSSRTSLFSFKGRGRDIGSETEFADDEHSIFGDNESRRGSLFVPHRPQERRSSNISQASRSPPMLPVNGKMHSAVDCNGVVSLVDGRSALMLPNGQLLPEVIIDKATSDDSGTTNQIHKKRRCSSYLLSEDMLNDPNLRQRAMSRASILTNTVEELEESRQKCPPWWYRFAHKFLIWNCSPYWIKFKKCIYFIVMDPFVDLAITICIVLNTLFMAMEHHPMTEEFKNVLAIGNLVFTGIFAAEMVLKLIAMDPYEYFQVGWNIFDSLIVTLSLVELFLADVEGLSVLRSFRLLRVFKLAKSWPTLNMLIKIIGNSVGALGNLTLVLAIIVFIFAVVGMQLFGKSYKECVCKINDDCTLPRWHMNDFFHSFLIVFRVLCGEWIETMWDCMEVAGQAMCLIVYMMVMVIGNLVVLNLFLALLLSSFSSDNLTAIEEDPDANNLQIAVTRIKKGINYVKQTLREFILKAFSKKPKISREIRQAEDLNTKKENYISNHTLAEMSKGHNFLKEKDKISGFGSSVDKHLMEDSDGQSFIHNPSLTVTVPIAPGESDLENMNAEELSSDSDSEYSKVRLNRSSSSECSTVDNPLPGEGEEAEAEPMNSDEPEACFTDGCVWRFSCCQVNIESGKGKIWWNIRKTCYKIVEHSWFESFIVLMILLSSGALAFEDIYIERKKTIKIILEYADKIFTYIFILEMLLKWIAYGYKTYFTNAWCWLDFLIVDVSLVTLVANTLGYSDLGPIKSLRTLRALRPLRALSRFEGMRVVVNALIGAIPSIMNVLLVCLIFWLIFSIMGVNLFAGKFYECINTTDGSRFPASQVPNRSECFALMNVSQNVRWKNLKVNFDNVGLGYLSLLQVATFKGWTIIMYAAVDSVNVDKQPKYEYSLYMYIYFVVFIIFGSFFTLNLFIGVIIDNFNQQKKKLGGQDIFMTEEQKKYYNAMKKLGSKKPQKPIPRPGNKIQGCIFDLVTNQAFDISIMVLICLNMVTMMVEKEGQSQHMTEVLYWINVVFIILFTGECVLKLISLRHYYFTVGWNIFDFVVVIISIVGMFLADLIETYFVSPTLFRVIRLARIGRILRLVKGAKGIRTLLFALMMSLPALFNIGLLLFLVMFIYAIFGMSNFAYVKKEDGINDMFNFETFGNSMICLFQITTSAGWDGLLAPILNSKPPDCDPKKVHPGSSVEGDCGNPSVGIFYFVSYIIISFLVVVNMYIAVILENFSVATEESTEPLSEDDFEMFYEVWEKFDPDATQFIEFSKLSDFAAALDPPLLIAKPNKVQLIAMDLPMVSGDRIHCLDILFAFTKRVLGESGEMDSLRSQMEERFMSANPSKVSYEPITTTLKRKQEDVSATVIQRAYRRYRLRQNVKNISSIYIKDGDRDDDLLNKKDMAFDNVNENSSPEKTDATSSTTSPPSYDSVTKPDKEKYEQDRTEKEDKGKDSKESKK

| SMILES | IC50 (human NaV1.4; [1]) | IC50 (human NaV1.5; [2]) | IC50 (human NaV1.7; [3]) | IC50 (human NaV1.4; read-out: Ala mutant IWQ IC50 NaV1.4) | IC50 (human NaV1.5; read-out: Ala mutant IWQ IC50 NaV1.5) | IC50 (human NaV1.7; read-out: Ala mutant IWQ IC50 NaV1.7) |
| --- | --- | --- | --- | --- | --- | --- |
| CC[C@H](C)[C@H](NC(=O)[C@@H](NC(=O)[C@H](CCCCN)NC(=O)[C@H](CCCNC(=N)N)NC(=O)[C@@H]1CSSC[C@@H]2NC(=O)[C@H](C)NC(=O)[C@H](CCCNC(=N)N)NC(=O)[C@H](CCCCN)NC(=O)[C@H](CO)NC(=O)[C@H](CCC(=O)O)NC(=O)[C@@H]3CSSC[C@H](NC(=O)[C@H](CCCNC(=N)N)NC(=O)[C@H](CC(C)C)NC(=O)CNC(=O)[C@H](CCC(=O)O)NC(=O)[C@H](CSSC[C@H](NC(=O)[C@@H](N)Cc4ccc(O)cc4)C(=O)N[C@@H](CCC(N)=O)C(=O)N[C@@H](CCCCN)C(=O)N[C@@H](Cc4c[nH]c5ccccc45)C(=O)N[C@@H](CCSC)C(=O)N[C@@H](Cc4c[nH]c5ccccc45)C(=O)N[C@@H]([C@@H](C)O)C(=O)N3)NC2=O)C(=O)N[C@@H](CCCCN)C(=O)N[C@@H](CC(C)C)C(=O)N[C@@H](Cc2c[nH]c3ccccc23)C(=O)N1)[C@@H](C)CC)C(N)=O [D10 Glu mutant] | 8800 nM | > 10 µM | 1300 nM |  |  |  |
| CC[C@H](C)[C@H](NC(=O)[C@@H](NC(=O)[C@H](CCCCN)NC(=O)[C@H](CCCNC(=N)N)NC(=O)[C@@H]1CSSC[C@@H]2NC(=O)[C@H](C)NC(=O)[C@H](CCCNC(=N)N)NC(=O)[C@H](CCCCN)NC(=O)[C@H](CO)NC(=O)[C@H](CC(=O)O)NC(=O)[C@@H]3CSSC[C@H](NC(=O)[C@H](CCCNC(=N)N)NC(=O)[C@H](CC(C)C)NC(=O)[C@H](CCC(=O)O)NC(=O)[C@H](CCC(=O)O)NC(=O)[C@H](CSSC[C@H](NC(=O)[C@@H](N)Cc4ccc(O)cc4)C(=O)N[C@@H](CCC(N)=O)C(=O)N[C@@H](CCCCN)C(=O)N[C@@H](Cc4c[nH]c5ccccc45)C(=O)N[C@@H](CCSC)C(=O)N[C@@H](Cc4c[nH]c5ccccc45)C(=O)N[C@@H]([C@@H](C)O)C(=O)N3)NC2=O)C(=O)N[C@@H](CCCCN)C(=O)N[C@@H](CC(C)C)C(=O)N[C@@H](Cc2c[nH]c3ccccc23)C(=O)N1)[C@@H](C)CC)C(N)=O [G18 Glu mutant] | 1220 nM | > 10 µM | 165 nM |  |  |  |
| CC[C@H](C)[C@H](NC(=O)[C@@H](NC(=O)[C@H](CCCCN)NC(=O)[C@H](CCCNC(=N)N)NC(=O)[C@@H]1CSSC[C@@H]2NC(=O)[C@H](C)NC(=O)[C@H](CCCNC(=N)N)NC(=O)[C@H](CCCCN)NC(=O)[C@H](CO)NC(=O)[C@H](CC(=O)O)NC(=O)[C@@H]3CSSC[C@H](NC(=O)[C@H](CCCNC(=N)N)NC(=O)[C@H](CC(C)C)NC(=O)CNC(=O)[C@H](CCC(=O)O)NC(=O)[C@H](CSSC[C@H](NC(=O)[C@@H](N)Cc4ccc(O)cc4)C(=O)N[C@@H](CCC(N)=O)C(=O)N[C@@H](C)C(=O)N[C@@H](Cc4c[nH]c5ccccc45)C(=O)N[C@@H](CCSC)C(=O)N[C@@H](Cc4c[nH]c5ccccc45)C(=O)N[C@@H]([C@@H](C)O)C(=O)N3)NC2=O)C(=O)N[C@@H](CCCCN)C(=O)N[C@@H](CC(C)C)C(=O)N[C@@H](Cc2c[nH]c3ccccc23)C(=O)N1)[C@@H](C)CC)C(N)=O [K4 Ala mutant] |  |  |  | 3260 nM | > 10 µM | 417 nM |
| CC[C@H](C)[C@H](NC(=O)[C@@H](NC(=O)[C@H](CCCCN)NC(=O)[C@H](CCCNC(=N)N)NC(=O)[C@@H]1CSSC[C@@H]2NC(=O)[C@H](C)NC(=O)[C@H](CCCNC(=N)N)NC(=O)[C@H](CCCCN)NC(=O)[C@H](CO)NC(=O)[C@H](CC(=O)O)NC(=O)[C@@H]3CSSC[C@H](NC(=O)[C@H](CCCNC(=N)N)NC(=O)[C@H](CC(C)C)NC(=O)CNC(=O)[C@H](CCC(=O)O)NC(=O)[C@H](CSSC[C@H](NC(=O)[C@@H](N)Cc4ccc(O)cc4)C(=O)N[C@@H](CCC(N)=O)C(=O)N[C@@H](CCC(=O)O)C(=O)N[C@@H](Cc4c[nH]c5ccccc45)C(=O)N[C@@H](CCSC)C(=O)N[C@@H](Cc4c[nH]c5ccccc45)C(=O)N[C@@H]([C@@H](C)O)C(=O)N3)NC2=O)C(=O)N[C@@H](CCCCN)C(=O)N[C@@H](CC(C)C)C(=O)N[C@@H](Cc2c[nH]c3ccccc23)C(=O)N1)[C@@H](C)CC)C(N)=O [K4 Glu mutant] | 967 nM | > 10 µM | 106 nM |  |  |  |
